Assay results as given in patent publication US10577363B2, “Substituted piperidine compounds” (EPIZYME, INC., priority 2014, dated 2020).

How the values were obtained:
SMYD3 [1] = target: T1, SMYD3 (Homo sapiens (Human), UniProt Q9H7B4); assay: SMYD3 biochemical assay (SPA, 3H-SAM methylation of MEKK2 protein substrate)
Method in brief: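 Tritium incorporation into GST-MEKK2 is counted by scintillation proximity after citric acid bead capture. Native human SMYD3 is preincubated with test compound for 30 min at room temperature at pH 8.0 (Tris-Cl, TCEP, BSG, Tween 20) before 3H-SAM and substrate are added; cold SAM at 100 uM final stops turnover.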

SMYD3 [2] = target: T1, SMYD3; assay: SMYD3 cell assay (Trimethyl-MEKK2 In-Cell Western in 293T/17 cells); type: cell-based
Method in brief: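 In-Cell Western ratio of trimethyl-Lys260 MEKK2 to anti-flag signal; percent inhibition from DMSO and maximum-inhibition controls, IC50 by non-linear regression, triplicates.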

[3] = average of n = 1 to n = 50, read-out: SMYD3 Biochem IC50
[4] = average of n = 1 to n = 50, read-out: SMYD3 Cell IC50
[5] = read-out: SMYD3 Biochem IC50 (μM)*
[6] = 293T/17 cells, read-out: SMYD3 Cell IC50 (μM)*
[7] = Table 2A, read-out: SMYD3 Biochem IC50
[8] = Table 2A, read-out: SMYD3 Cell IC50

T1 sequence (Q9H7B4 whole entry): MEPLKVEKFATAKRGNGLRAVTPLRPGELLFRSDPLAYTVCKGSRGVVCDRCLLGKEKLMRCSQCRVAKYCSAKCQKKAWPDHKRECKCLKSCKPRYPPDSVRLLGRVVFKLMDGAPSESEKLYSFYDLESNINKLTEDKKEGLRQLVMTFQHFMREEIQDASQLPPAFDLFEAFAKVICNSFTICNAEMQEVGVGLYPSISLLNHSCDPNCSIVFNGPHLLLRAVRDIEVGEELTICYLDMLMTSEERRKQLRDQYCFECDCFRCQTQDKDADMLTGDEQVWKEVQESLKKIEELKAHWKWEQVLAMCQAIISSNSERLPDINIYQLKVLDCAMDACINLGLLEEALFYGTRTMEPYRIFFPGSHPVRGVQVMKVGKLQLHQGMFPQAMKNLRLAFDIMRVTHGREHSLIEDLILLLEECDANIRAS

SMILES	IC50 (SMYD3 [1]; read-out: SMYD3 Biochem IC50*) [µM]	IC50 (SMYD3 [2]; read-out: SMYD3 Cell IC50*) [µM]	IC50 (SMYD3 [1]; [5]) [µM]	IC50 (SMYD3 [2]; [6]) [µM]	further results
C[C@H]1C[C@@H](NC(=O)c2cc(C3CC3)on2)CCN1S(=O)(=O)[C@H]1CC[C@H](N)CC1 [compound 773, N-((2S,4S)-1-(((1r,4S)-4-aminocyclohexyl)sulfonyl)-2-methylpiperidin-4-yl)-5-cyclopropylisoxazole-3-carboxamide]	0.00103	0.0177	–	–	–
C[C@H]1C[C@@H](NC(=O)c2cc(C3CC3)on2)CCN1S(=O)(=O)c1ccncc1 [compound 706, 5-cyclopropyl-N-((2S,4S)-2-methyl-1-(pyridin-4-ylsulfonyl)piperidin-4-yl)isoxazole-3-carboxamide]	–	–	–	–	IC50 (SMYD3 [1]; [3]): 0.238 µM; IC50 (SMYD3 [2]; [4]): 1.21 µM
CN1CCC[C@@H]1CS(=O)(=O)N1[C@@H]2CC[C@H]1C[C@@H](NC(=O)c1cc(C3CC3)on1)C2 [compound 969, 5-cyclopropyl-N-((1R,3R,5S)-8-((((R)-1-methylpyrrolidin-2-yl)methyl)sulfonyl)-8-azabicyclo[3.2.1]octan-3-yl)isoxazole-3-carboxamide]	–	–	–	–	IC50 (SMYD3 [1]; IC50 values are an average of n = 1 to n = 50, read-out: SMYD3 Biochem IC50*): 0.0886 µM; IC50 (SMYD3 [2]; IC50 values are an average of n = 1 to n = 50, read-out: SMYD3 Cell IC50*): 0.44 µM
CN(CCC(F)(F)F)C1CCN(S(=O)(=O)N2[C@@H]3CC[C@H]2C[C@@H](NC(=O)c2cc(C4CC4)on2)C3)CC1 [compound 961, 5-cyclopropyl-N-((1R,3r,5S)-8-((4-(methyl(3,3,3-trifluoropropyl)amino)piperidin-1-yl)sulfonyl)-8-azabicyclo[3.2.1]octan-3-yl)isoxazole-3-carboxamide]	0.0816	0.364	–	–	–
C[C@H]1CN(C(=O)[C@H]2CC[C@H](N)CC2)[C@@H](C)C[C@H]1NC(=O)c1cc(C2CC2)on1 [compound 419, N-((2S,4R,5S)-1-((1r,4S)-4-aminocyclohexane-1-carbonyl)-2,5-dimethylpiperidin-4-yl)-5-cyclopropylisoxazole-3-carboxamide]	–	–	1.95	> 10	–
CN(Cc1ccccc1)C1CCN(S(=O)(=O)N2[C@@H]3CC[C@H]2C[C@@H](NC(=O)c2cc(C4CC4)on2)C3)CC1 [compound 880, N-((1R,3r,5S)-8-((4-(benzyl(methyl)amino)piperidin-1-yl)sulfonyl)-8-azabicyclo[3.2.1]octan-3-yl)-5-cyclopropylisoxazole-3-carboxamide]	0.0109	0.455	–	–	–
CN(CCO)C1CCN(CCS(=O)(=O)N2[C@@H]3CC[C@H]2C[C@@H](NC(=O)c2cc(C4CC4)on2)C3)C1 (stereo partly drawn) [compound 921, 5-cyclopropyl-N-((1R,3r,5S)-8-((2-(3-((2-hydroxyethyl)(methyl)amino)pyrrolidin-1-yl)ethyl)sulfonyl)-8-azabicyclo[3.2.1]octan-3-yl)isoxazole-3-carboxamide]	0.0277	0.373	–	–	–
C[C@@H]1C[C@@H](NC(=O)c2cc(C3CC3)on2)CCN1C(=O)CC(CN)Cc1ccccc1 (stereo partly drawn) [compound 270, N-((2R,4S)-1-(4-amino-3-benzylbutanoyl)-2-methylpiperidin-4-yl)-5-cyclopropylisoxazole-3-carboxamide]	–	–	> 10	> 40	–
O=C(N[C@H]1C[C@H]2CC[C@@H](C1)N2S(=O)(=O)N1CCC(NCc2ccc(C(F)(F)F)cc2)CC1)c1cc(C2CC2)on1 [compound 892, 5-cyclopropyl-N-((1R,3r,5S)-8-((4-((4-(trifluoromethyl)benzyl)amino)piperidin-1-yl)sulfonyl)-8-azabicyclo[3.2.1]octan-3-yl)isoxazole-3-carboxamide]	0.0135	0.268	–	–	–
C[C@@H]1C[C@H](NC(=O)c2cc(C3CC3)on2)CCN1C(=O)c1ccc(CN(C)C)cc1 [compound 686, 5-cyclopropyl-N-((2R,4R)-1-(4-((dimethylamino)methyl)benzoyl)-2-methylpiperidin-4-yl)isoxazole-3-carboxamide]	–	–	–	–	IC50 (SMYD3 [1]; [3]): 0.129 µM; IC50 (SMYD3 [2]; [4]): 1.54 µM
C[C@H]1C[C@@H](NC(=O)c2cc(C3CC3)on2)CCN1S(=O)(=O)N1CCCNCC1 [compound 585, N-((2S,4S)-1-((1,4-diazepan-1-yl)sulfonyl)-2-methylpiperidin-4-yl)-5-cyclopropylisoxazole-3-carboxamide]	–	–	–	–	IC50 (SMYD3 [1]; [7]): 0.0106 µM; IC50 (SMYD3 [2]; [8]): 0.186 µM
O=C(N[C@H]1C[C@H]2CC[C@@H](C1)N2S(=O)(=O)N1CC2(CCNCC2)C1)c1cc(C2CC2)on1 [Cpd. No. 559, N-((1R,3r,5S)-8-(2,7-diazaspiro[3.5]nonan-2-ylsulfonyl)-8-azabicyclo[3.2.1]octan-3-yl)-5-cyclopropylisoxazole-3-carboxamide 2,2,2-trifluoroacetate]	–	–	–	–	IC50 (SMYD3 [1]; [7]): 0.0047 µM; IC50 (SMYD3 [2]; [8]): 0.0319 µM
C[C@H]1CN(S(=O)(=O)[C@H]2CC[C@H](N(C)C)CC2)CC[C@H]1NC(=O)c1cc(C2CC2)on1 [compound 837, 5-cyclopropyl-N-((3S,4R)-1-(((1r,4S)-4-(dimethylamino)cyclohexyl)sulfonyl)-3-methylpiperidin-4-yl)isoxazole-3-carboxamide]	0.00482	0.0844	–	–	–
O=C(N[C@@H]1C[C@H]2CC[C@@H](C1)N2S(=O)(=O)CCN1CCOCC1)c1cc(C2CC2)on1 [compound 440, 5-cyclopropyl-N-((1R,3s,5S)-8-((2-morpholinoethyl)sulfonyl)-8-azabicyclo[3.2.1]octan-3-yl)isoxazole-3-carboxamide]	–	–	> 10	> 10	–
C[C@@H]1CNCCN1S(=O)(=O)N1CC[C@H](NC(=O)c2cc(C3CC3)on2)C[C@@H]1C [compound 666, 5-cyclopropyl-N-((2S,4S)-2-methyl-1-(((R)-2-methylpiperazin-1-yl)sulfonyl)piperidin-4-yl)isoxazole-3-carboxamide]	–	–	–	–	IC50 (SMYD3 [1]; [3]): 0.0906 µM; IC50 (SMYD3 [2]; [4]): 0.801 µM
CCc1cc(C(=O)N[C@H]2C[C@H]3CC[C@@H](C2)N3S(=O)(=O)[C@H]2CC[C@H](N)CC2)no1 [compound 789, N-((1R,3R,5S)-8-(((1r,4R)-4-aminocyclohexyl)sulfonyl)-8-azabicyclo[3.2.1]octan-3-yl)-5-ethylisoxazole-3-carboxamide]	0.00159	0.0319	–	–	–
O=C(N[C@@H]1C[C@H]2CC[C@@H](C1)N2S(=O)(=O)CCN1CCCC1)c1cc(C2CC2)on1 [compound 435, 5-cyclopropyl-N-((1R,3s,5S)-8-((2-(pyrrolidin-1-yl)ethyl)sulfonyl)-8-azabicyclo[3.2.1]octan-3-yl)isoxazole-3-carboxamide]	–	–	2	5.59	–
C[C@H]1C[C@@H](NC(=O)c2cc(C3CC3)on2)CCN1S(=O)(=O)CCCCN [compound 548, N-((2S,4S)-1-((4-aminobutyl)sulfonyl)-2-methylpiperidin-4-yl)-5-cyclopropylisoxazole-3-carboxamide]	–	–	–	–	IC50 (SMYD3 [1]; [7]): 0.0024 µM; IC50 (SMYD3 [2]; [8]): 0.0941 µM
NCCCS(=O)(=O)N1[C@@H]2CC[C@H]1C[C@@H](NC(=O)c1cc(C3CC3)on1)C2 [Cpd. No. 485, N-((1S,3r,5R)-8-(3-aminopropylsulfonyl)-8-aza-bicyclo[3.2.1]octan-3-yl)-5-cyclopropylisoxazole-3-carboxamide]	–	–	0.00507	0.129	–
CC(=O)Nc1ccc(S(=O)(=O)N2CC[C@@H](NC(=O)c3cc(C4CC4)on3)C[C@@H]2C)cc1 [compound 377, N-((2S,4R)-1-((4-acetamidophenyl)sulfonyl)-2-methylpiperidin-4-yl)-5-cyclopropylisoxazole-3-carboxamide]	–	–	> 10	27.6	–
